Test results taken from the NIST ThermoML archive (doi:10.1016/j.jct.2012.09.017).
Numbers after ± are expanded uncertainties.

How the values were obtained:
[1] = 101.33 kPa, Liquid, Vibrating tube method
[2] = activity coefficient (dimensionless); of the first substance listed, at infinite dilution; xn = mol fraction of the nth substance listed; settings: 101 kPa, Liquid, Chromatography, x1 = 0

| SMILES | activity coefficient ([2]; 333.15 K) | activity coefficient ([2]; 343.15 K) | activity coefficient ([2]; 353.15 K) | activity coefficient ([2]; 363.15 K) | activity coefficient ([2]; 373.15 K) | activity coefficient ([2]; 318.15 K) | activity coefficient ([2]; 323.15 K) | other results |
| --- | --- | --- | --- | --- | --- | --- | --- | --- |
| CCCC[N+]1(C)CCCC1.O=C1O[B-]2(OC1=O)OC(=O)C(=O)O2 [1-butyl-1-methylpyrrolidinium bis(oxalato)borate] | – | – | – | – | – | – | – | mass density ([1]; 328.15 K): 1235.34 ± 0.44 kg/m3; mass density ([1]; 333.15 K): 1231.29 ± 0.44 kg/m3; mass density ([1]; 338.15 K): 1227.23 ± 0.43 kg/m3; mass density ([1]; 343.15 K): 1223.19 ± 0.43 kg/m3; mass density ([1]; 348.15 K): 1219.17 ± 0.43 kg/m3; mass density ([1]; 353.15 K): 1215.17 ± 0.42 kg/m3 |
| CCCC[N+]1(C)CCCC1.N#C[B-](C#N)(C#N)C#N [1-butyl-1-methylpyrrolidinium tetracyanoborate] | – | – | – | – | – | – | – | mass density ([1]; 283.15 K): 986.48 ± 0.29 kg/m3; mass density ([1]; 293.15 K): 979.5 ± 0.29 kg/m3; mass density ([1]; 303.15 K): 972.59 ± 0.29 kg/m3; mass density ([1]; 313.15 K): 965.77 ± 0.29 kg/m3; mass density ([1]; 323.15 K): 959.04 ± 0.29 kg/m3; mass density ([1]; 333.15 K): 952.4 ± 0.29 kg/m3; mass density ([1]; 343.15 K): 945.83 ± 0.29 kg/m3 |
| COC(C)=O [methyl ethanoate] + CCCC[N+]1(C)CCCC1.O=C1O[B-]2(OC1=O)OC(=O)C(=O)O2 | 1.03 ± 0.05 | 1.04 ± 0.05 | 1.06 ± 0.05 | 1.08 ± 0.05 | 1.09 ± 0.05 | – | – | – |
| CC1CCCCC1 [methylcyclohexane] + CCCC[N+]1(C)CCCC1.N#C[B-](C#N)(C#N)C#N | 11.2 ± 0.6 | 10.6 ± 0.5 | 10.1 ± 0.5 | – | – | 12.2 ± 0.6 | 11.8 ± 0.6 | – |
| CC1CCCCC1 [methylcyclohexane] + CCCC[N+]1(C)CCCC1.O=C1O[B-]2(OC1=O)OC(=O)C(=O)O2 | 30 ± 1.6 | 26.5 ± 1.4 | 24 ± 1.2 | 21.6 ± 1.1 | 19.9 ± 1 | – | – | – |
| C[N+](=O)[O-] [nitromethane] + CCCC[N+]1(C)CCCC1.N#C[B-](C#N)(C#N)C#N | 0.429 ± 0.029 | 0.431 ± 0.029 | 0.433 ± 0.029 | – | – | 0.427 ± 0.029 | 0.427 ± 0.029 | – |
| C[N+](=O)[O-] [nitromethane] + CCCC[N+]1(C)CCCC1.O=C1O[B-]2(OC1=O)OC(=O)C(=O)O2 | 0.416 ± 0.029 | 0.423 ± 0.029 | 0.43 ± 0.029 | 0.436 ± 0.029 | 0.441 ± 0.029 | – | – | – |
| C=CCCCCCC [oct-1-ene] + CCCC[N+]1(C)CCCC1.N#C[B-](C#N)(C#N)C#N | 14.7 ± 0.8 | 14 ± 0.7 | 13.4 ± 0.7 | – | – | 15.8 ± 0.8 | 15.4 ± 0.8 | – |
| ClC(Cl)(Cl)Cl [tetrachloromethane] + CCCC[N+]1(C)CCCC1.N#C[B-](C#N)(C#N)C#N | 2.43 ± 0.12 | 2.45 ± 0.13 | 2.47 ± 0.13 | – | – | 2.4 ± 0.12 | 2.41 ± 0.12 | – |
| ClC(Cl)(Cl)Cl [tetrachloromethane] + CCCC[N+]1(C)CCCC1.O=C1O[B-]2(OC1=O)OC(=O)C(=O)O2 | 4.23 ± 0.22 | 4.14 ± 0.21 | 4.07 ± 0.21 | 4 ± 0.21 | 3.95 ± 0.2 | – | – | – |
| Cc1ccccc1 [toluene] + CCCC[N+]1(C)CCCC1.N#C[B-](C#N)(C#N)C#N | 1.17 ± 0.05 | 1.19 ± 0.05 | 1.22 ± 0.06 | – | – | 1.13 ± 0.05 | 1.15 ± 0.05 | – |
| Cc1ccccc1 [toluene] + CCCC[N+]1(C)CCCC1.O=C1O[B-]2(OC1=O)OC(=O)C(=O)O2 | 2.57 ± 0.13 | 2.52 ± 0.13 | 2.47 ± 0.13 | 2.43 ± 0.12 | 2.4 ± 0.12 | – | – | – |

Now from value to compound, other results behind:

| activity coefficient ([2]; 333.15 K) | activity coefficient ([2]; 343.15 K) | activity coefficient ([2]; 353.15 K) | activity coefficient ([2]; 363.15 K) | activity coefficient ([2]; 373.15 K) | activity coefficient ([2]; 318.15 K) | activity coefficient ([2]; 323.15 K) | SMILES | other results |
| --- | --- | --- | --- | --- | --- | --- | --- | --- |
| 41.4 ± 2.1 | 37.5 ± 1.9 | 34.3 ± 1.8 | 31.5 ± 1.6 | 29.3 ± 1.5 | – | – | C=CCCCCCC [oct-1-ene] + CCCC[N+]1(C)CCCC1.O=C1O[B-]2(OC1=O)OC(=O)C(=O)O2 | – |
| 29.4 ± 1.5 | 27.4 ± 1.4 | 25.6 ± 1.3 | – | – | 33.2 ± 1.7 | 31.8 ± 1.6 | CCCCCCCC [octane] + CCCC[N+]1(C)CCCC1.N#C[B-](C#N)(C#N)C#N | – |
| 88.8 ± 4.6 | 77.7 ± 4 | 69.3 ± 3.6 | 61.9 ± 3.2 | 56.1 ± 2.9 | – | – | CCCCCCCC [octane] + CCCC[N+]1(C)CCCC1.O=C1O[B-]2(OC1=O)OC(=O)C(=O)O2 | – |
| 1.34 ± 0.06 | 1.24 ± 0.06 | 1.15 ± 0.05 | – | – | 1.53 ± 0.07 | 1.46 ± 0.07 | CCCO [propan-1-ol] + CCCC[N+]1(C)CCCC1.N#C[B-](C#N)(C#N)C#N | – |
| 2.56 ± 0.13 | 2.3 ± 0.12 | 2.08 ± 0.11 | 1.9 ± 0.1 | 1.76 ± 0.09 | – | – | CCCO [propan-1-ol] + CCCC[N+]1(C)CCCC1.O=C1O[B-]2(OC1=O)OC(=O)C(=O)O2 | – |
| 1.35 ± 0.06 | 1.25 ± 0.06 | 1.16 ± 0.05 | – | – | – | – | CC(C)O [propan-2-ol] + CCCC[N+]1(C)CCCC1.N#C[B-](C#N)(C#N)C#N | – |
| – | – | – | 1.98 ± 0.1 | 1.83 ± 0.09 | – | – | CC(C)O [propan-2-ol] + CCCC[N+]1(C)CCCC1.O=C1O[B-]2(OC1=O)OC(=O)C(=O)O2 | – |
| 0.65 ± 0.034 | 0.667 ± 0.034 | 0.683 ± 0.034 | – | – | 0.622 ± 0.033 | 0.632 ± 0.033 | C1CCOC1 [tetrahydrofuran] + CCCC[N+]1(C)CCCC1.N#C[B-](C#N)(C#N)C#N | – |
| 1.13 ± 0.05 | 1.14 ± 0.05 | 1.15 ± 0.05 | 1.15 ± 0.05 | 1.16 ± 0.05 | – | – | C1CCOC1 [tetrahydrofuran] + CCCC[N+]1(C)CCCC1.O=C1O[B-]2(OC1=O)OC(=O)C(=O)O2 | – |
| 0.703 ± 0.035 | 0.718 ± 0.035 | 0.733 ± 0.036 | – | – | 0.681 ± 0.034 | 0.688 ± 0.035 | c1ccsc1 [thiophene] + CCCC[N+]1(C)CCCC1.N#C[B-](C#N)(C#N)C#N | – |
| 1.13 ± 0.05 | 1.12 ± 0.05 | 1.12 ± 0.05 | 1.13 ± 0.05 | 1.13 ± 0.05 | – | – | c1ccsc1 [thiophene] + CCCC[N+]1(C)CCCC1.O=C1O[B-]2(OC1=O)OC(=O)C(=O)O2 | – |
| 0.654 ± 0.034 | 0.683 ± 0.034 | 0.711 ± 0.035 | – | – | 0.609 ± 0.033 | 0.623 ± 0.033 | ClC(Cl)Cl [trichloromethane] + CCCC[N+]1(C)CCCC1.N#C[B-](C#N)(C#N)C#N | – |
| 1 ± 0.04 | 1.03 ± 0.05 | 1.06 ± 0.05 | 1.08 ± 0.05 | 1.11 ± 0.05 | – | – | ClC(Cl)Cl [trichloromethane] + CCCC[N+]1(C)CCCC1.O=C1O[B-]2(OC1=O)OC(=O)C(=O)O2 | – |
